Assay [1] deals with T1, FPR1 (UniProt P21462).
T1 sequence (P21462 1-350): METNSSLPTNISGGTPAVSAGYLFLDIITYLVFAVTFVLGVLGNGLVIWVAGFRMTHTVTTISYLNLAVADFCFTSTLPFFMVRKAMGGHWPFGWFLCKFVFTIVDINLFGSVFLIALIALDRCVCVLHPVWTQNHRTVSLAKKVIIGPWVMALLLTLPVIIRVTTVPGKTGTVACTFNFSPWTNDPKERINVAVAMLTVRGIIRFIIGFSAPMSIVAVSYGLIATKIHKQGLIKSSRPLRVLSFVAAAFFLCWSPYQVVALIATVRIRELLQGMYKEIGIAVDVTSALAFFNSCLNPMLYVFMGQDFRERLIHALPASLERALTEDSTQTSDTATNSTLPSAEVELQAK
Briefly: fMLP-FPR1 mediated calcium signaling assay in FPR1-overexpressing 293T cells. It is filed as cell-based, human or mouse. The note with it: inhibition of fMLP-FPR1 mediated intracellular calcium change; hFPR1 or mFPR1 overexpressing 293T cells; 10 min preincubation; INDO-1 AM, FACS. As to the method: The effects of the compounds of this disclosure on regulating the FPR1-mediated cell signaling were measured by monitoring the cellular calcium level change, as illustrated by the exemplary examples in Table 2. The dose response of the illustrated examples are reported categorically using the following ranking criteria: *** (IC50≤100 nM); ** (IC50≥100 to ≤1000 nM); * (IC50≥1000 to ≤10,000 nM); N.D.—not detected.
The coding DNA sequence (CDS) of human FPR1 (NM_001193306) and mouse FPR1 (NM_013521) were cloned and inserted to the lentivirus vector GV367 (Vector information:http://www.genechem.com.cn/index/supports/tool_search.html?keywords=GV367) under the conduction of pCMV promoter. 293T cells were cultured in H-DMEM supplemented with 10% FBS and 1% penicillin-streptomycin (PS) at 37° C. in 5% CO2 Incubator. 293T cells were transfected with lentivirus vector GV367 containing the CDS of human or mouse FPR1 for 24 h and then cultured with complete medium for another 48 h. At 72 h after transfected, cells were passaged, and 5 μg/ml puromycin was added to screen FPR1-transfected 293T cells. The overexpression of human or mouse FPR1 in 293 T cells were detected by immunostaining with anti-mouse or human FPR1 antibodies (Biolegend or Antibody Online).
Cultured hFPR1 or mFPR1 overexpressing 293T cells were labeled with 1 μM INDO-1 AM calcium sensor dye (eBioscience) for 30 min at 37° C. After washed with 1×PBS, cells were resuspended with H-DMEM containing 3% FBS, and were maintained on ice prior to the measurement of intracellular calcium concentration. To measure the inhibitory potency of designed potential FPR1 antagonists, hFPR1 or mFPR1 overexpressing 293T cells were incubated with the compound for 10 min at room temperature. The cytoplasmic calcium levels were then measured by FACS Aria III at 37° C. prior to and after the stimulation of fMLP. We defined the immunofluorescence intensity of indo-1 AM before adding fMLP as the basal value, and the intensity at the peak immunofluorescence reduction after adding fMLP as minimum value for each sample. The change of intracellular calcium was calculated as follow: (basal value−minimum value)/basal value×100%. The IC50 of each compound in inhibiting fMLP-FPR1 mediated intracellular calcium concentration in 293T cells were automatically calculated with Prism 8.0.2 software (GraphPad) after inputting a series of change of intracellular calcium at multiple concentration gradients (from 0 nM to 100 μM).
A general note: Calcium assays in cells follow changes in intracellular calcium, usually with a dye or a luminescent sensor.

For assay [2], the system named is ICH mice. Briefly: MRI lesion, hematoma and perihematomal edema volume in intracerebral hemorrhage (ICH) mouse model. The format is in vivo. Particulars: 5 mg/kg/daily i.p., first dose 1 h after ICH onset, vs vehicle. The source says:
The intracerebral hemorrhage (ICH) model in mice was used to illustrate the protective benefits of the compounds of this disclosure, and FIG. 1 depicts the procedure in preparing this model. ICH was induced in C57 B/L6 male mice by the injection of an autologous blood or collagenase as previously described (Lauer et al., Circulation 124: 1654-1662 (2011); Rynkowski et al., Nat. Protoc. 3:122-128 (2008)). Mice were anesthetized using isoflurane inhalation and fixed on a stereotactic frame. A burr hole was drilled on the right side of the skull at 2.3 mm lateral to the midline and 0.5 mm anterior to the bregma. For the autologous blood model, 30 μl of non-heparinized blood was withdrawn from the angular vein. The first 5 μl blood was injected at a depth of 3 mm beneath the hole, and the rest 25 μl blood were injected at 3.7 mm beneath the hole with a rate of 1 μl/min. In the collagenase model, 0.038 U of the bacterial collagenase (in 0.5 μl saline) was infused to the striatum (0.5 mm anterior, 2.3 mm right lateral, and 3.5 mm deep relative to bregma) at a speed of 0.5 μl/min. Mice on the sham control were injected with an equal volume of saline. Throughout the procedure, the body temperature was maintained at 37° C. with a homeothermic blanket. After the surgery, mice were under observation with free access to food and water. […]
The total lesion volume was measured on the 7T small-animal MM scanner (Bruker, Corp., USA) as described (Li et al., 2017). The T2-weighted water imaging was recorded with following parameters (repetition time (TR)=4500 ms, echo time (TE)=65.5 ms, field of view (FOV)=28×28 mm^2, image matrix=256×256, at 0.5-mm slice thickness). […] The volumes were manually outlined and calculated by multiplying the sum of the volume by the distance between sections (0.5 mm) using MIPAV software. PHE volumes were calculated as total lesion volume minus hematoma volume. MRI data were analyzed by two investigators blinded to experimental groups.

Broadly, the IC50 is the point on the concentration scale where inhibition reaches its midpoint.

Consider `Cc1ccc(O)c(-c2[nH]nc3c2C(c2ccc(C(F)(F)F)cc2)N(C2CCOCC2)C3=O)c1` (racemic) [Compound 1, Rac-3-(2-hydroxy-5-methylphenyl)-5-(tetrahydro-2H-pyran-4-yl)-4-(4-(trifluoromethyl)phenyl)-4,5-dihydropyrrolo[3,4-c]pyrazol-6(2H)-one], for which the concentration for half-maximal inhibition (IC50) in assay [1] lay within 100 to 1000 nM. Besides, the “perihematomal edema (PHE) size” value in assay [2] is “significantly reduced”.
